Source: patent US20030144204A1, “Akt-based inducible survival switch” (Baylor College of Medicine, priority 2001, published 2003)

Experiments:
[1] = test system: Akt (T308 or S473 site); test: Western blot of Akt phosphorylation in transfected 293T cells; assay type: cell-based, human; conditions: M-FRB12 plus F3-ΔPH.Akt, serum starved 24 hours, as early as 30 min after drug addition
Protocol: 293T cells seeded in 6-well plates were transiently transfected with 2 μg of different expression constructs in 6 μl FuGENE6 (Boehringer-Mannheim, Indianapolis, Ind.) in Opti-MEM-I medium for 24 hours followed by serum starvation for an additional 24 hours. Cells were then treated with different agents and harvested at different time points. After washing (2×) in ice-cold PBS, cell pellets were lysed in RIPA buffer containing protease inhibitors (CytoSignal, Irvine, Calif.). Equal amounts of protein from each sample were separated on 10% SDS-PAGE gels and transferred to PVDF membrane (Amersham Pharmacia Biotech, Piscataway, N.J.). Phospho-specific antibodies against Akt (T308 or S473 site) (Cell Signaling, Beverly, Mass.) were used for measuring Akt phosphorylation, and the signal was detected by AP-conjugated secondary antibodies (NEB, Beverly, Mass.) and CDP-Star chemiluminescence reagent (NEN life science, Boston, Mass.).
Briefly, 293T cells were transiently co-transfected with M-FRB1 2 and F3-ΔPH.Akt expression plasmids. After 24 hours, transfected cells were serum starved for another 24 hours and then treated with AP22783.

[2] = test system: F3-ΔPH.Akt kinase; test: Immunoprecipitation and in vitro Akt kinase assay (GSK3α/β crosstide); assay type: biochemical; conditions: Jurkat.iAkt serum starved 24 hours, treated 30 min, anti-HA immunoprecipitate
Protocol: Jurkat.iAktb were serum starved for 24 hours followed by treatment with AP22783 or serum for 30 min. Cells were then lysed in a lysis buffer provided with the Akt Kinase Assay kit (Cell Signaling, Beverly, Mass.), and Fpk3-ΔPH.AKT-E was immunoprecipitated with polyclonal anti-HA antibody. Antibody-antigen complexes were washed three times in lysis buffer and once in kinase buffer. In vitro kinase assays for Akt were performed using a GSK3α/β “crosstide”. The extent of crosstide phosphorylation was determined by anti-GSKα/β immunoblotting according to the manufacturer's protocol.
To further measure the induction of Akt enzymatic activity, Jurkat.iAkt cells were serum starved for 24 hours and thereafter treated with AP22783 or serum for 30 min. Chimeric F3-ΔPH.Akt.-kinase was immunoprecipitated with the anti-HA antibody and Akt kinase activity was measured using an in vitro kinase assay that uses a GSK3α/β “crosstide” as a substrate. The level of phosphorylated GSK3 crosstides was determined by immunoblotting with phospho-specific antibody against GSK3-α21/β9.

[3] = test system: Jurkat.iAkt cells; test: Apoptosis by propidium iodide staining and flow cytometry (hypodiploid cells); assay type: cell-based, human; conditions: for etoposide-induced cell death: etoposide 0.3-100 μM, 12 hours
Protocol: Jurkat.iAkt were serum starved for 24 hours followed by pre-treatment with AP22783 in 0, 2 or 10% FBS for 40 min. After incubation with apoptosis-inducing stimuli for the periods indicated, cells were harvested and washed twice in ice-cold PBS and fixed in 70% ethanol. Cells were stained in 50 μg/ml propidium iodide and 100 μg/mlRNase A for 30 min at 37° C., and hypodiploid cells were quantitated by flow cytometry using a Beckman-Coulter EPICS XL-MCL.
Jurkat.iAkt cells were given various apoptotic insults in the presence or absence of rapalogs. Initially, the protective effects of iAkt were studied on staurosporine (STS)-induced apoptosis. […] Following serum starvation for 24 hours, Jurkat.iAkt cells were treated with 0, 0.5, or 2.0 μM STS with or without AP22783 (400 nM) for 6 hours in the absence of serum. Cell death was monitored using propidium iodide (PI) staining and flow cytometry (FCM) by quantitation of subdiploid cells.
The effects of AP22783 treatment following PI3K inhibition of Jurkat.iAkt cell were studied.
Finally, the anti-apoptotic effects of iAkt on protection from direct DNA damaging agents were examined. The anti-tumor agent, etoposide (VP16), is widely used as a chemotherapeutic drug that works by inhibiting DNA topoisomerase II, which can induce apoptosis in a variety of cell types. […] Again, the experiments were carried out in two different culture conditions with low or high FBS levels.

[4] = test system: caspase-3 and PARP in Jurkat.iAkt cells; test: Caspase-3 activation and PARP cleavage by immunoblotting
Protocol: Next, caspase-3 activation and PARP substrate cleavage were measured by immunoblotting.

[5] = test system: endogenous Akt and iAkt; test: Akt phosphorylation in Jurkat.iAkt cells after kinase inhibitor pretreatment; assay type: cell-based, human; conditions: 30 min inhibitor pretreatment, then AP22783 30 min
Protocol: Jurkat.iAkt cells were serum starved for 24 hours followed by 30 min pretreatment with PI3K inhibitors, wortmannin and LY294002, or MEK inhibitor, PD98059, as a control. After inhibitor pretreatment, AP22783 was added to the media for another 30 min to mobilize membrane recruitment of iAkt.

[6] = test system: NF-κB; test: NF-κB/SEAP reporter assay in Jurkat-TAg cells; assay type: cell-based, human; conditions: R0318220 1 μM

O=C(O)COc1ccccc1O [AP22783]
phosphorylation of iAkt at S473 and T308 [1]: greatly stimulated
Akt kinase activity (GSK3 crosstide phosphorylation) [2]: associated with GSK3 phosphorylation
apoptotic cells ([3]; 2 μM STS with AP22783 400 nM, 6 hours, no serum, without background correction): 17%
PI3K inhibitor-induced cell death ([3]; AP22783 400 nM with wortmannin or LY294002, 2% or 10% FBS, 9 hours): almost totally blocked
CH-11-triggered apoptosis ([3]; AP22783 400 nM, 2% or 10% FBS, 6 hours): rescued cells from CH-11-triggered apoptosis
etoposide-induced cell death ([3]; AP22783 400 nM, high FBS): reduced etoposide-induced cell death efficiently
etoposide-induced cell death ([3]; AP22783 400 nM, low FBS): lesser, but reproducible level of protection
STS-induced toxicity (apoptosis) ([3]; low-dose STS (0.5 μM) with AP22783 400 nM, 6 hours, no serum): fully blocked
STS-induced caspase-3 activation ([4]; with AP22783): blocked
high-dose STS-induced PARP cleavage ([4]; with AP22783): reduced
low-dose STS-induced PARP cleavage ([4]; with AP22783): blocked

COc1cccc(-c2cc(=O)c3ccccc3o2)c1N [PD98059]
endogenous Akt phosphorylation at T308 [5]: no discernable effect
iAkt phosphorylation [5]: no discernable effect

Cn1cc(C2=C(c3cn(CCCSC(=N)N)c4ccccc34)C(=O)NC2=O)c2ccccc21 [R0318220]
NF-κB activation by M-Akt plus PKC [6]: complete inhibition of NF-κB

CN[C@@H]1C[C@H]2O[C@@](C)([C@@H]1OC)n1c3ccccc3c3c4c(c5c6ccccc6n2c5c31)C(=O)NC4 [STS, staurosporine]
apoptotic cells ([3]; 2 μM STS, 6 hours, no serum, without AP22783, without background correction): 36%
cell death ([3]; STS 0, 0.5 or 2.0 μM, 6 hours, no serum): induced cell death in a dose-response manner
apoptotic cells ([3]; low-dose STS (0.5 μM), 6 hours, no serum, without AP22783): 19.4%
procaspase-3 level ([4]; STS at high-dose): significant reduction of procaspase-3
PARP cleavage ([4]; STS at low- and high-dose): dramatic PARP cleavage
